Data taken from US20210171948A1, “COMPOSITIONS AND METHODS FOR TARGETING GLYPICAN-2 IN THE TREATMENT OF CANCER” (Shepherd Therapeutics, Inc., priority 2019, published 2021).
Strand notation (5' to 3'): a small letter for the sugar, then the base; units joined by * are phosphorothioate-linked, units joined directly phosphodiester-linked; [ ] holds rarer units or linkages, { } end groups; capitals alone tell only the bases. d = 2'-deoxy (DNA); r = 2'-OH (RNA)

Legend:
[1] = system: CHP212 neuroblastoma cell line; experiment: Cell viability after siRNA transfection, 96 hour (Example 4, FIG. 4B); type: cell-based; conditions: 96 hour incubation (FIG. 4B)
Protocol: The extent of GPC2 mRNA reduction was assessed with additional GPC2 siRNA sequences in the CHP212 neuroblastoma cell line. Cells were transfected with either a scrambled control siRNA or with GPC2 siRNA sequences 3 or 5, or with siRNA sequences 6-11 (Sigma) using the RNAiMAX Lipofectamine kit (Invitrogen, Carlsbad, Calif.) as previously described. Following a 96 hour incubation period, total RNA samples were collected and viability was measured in parallel plated cells.

[2] = system: GPC2 protein; experiment: GPC2 protein expression by flow cytometry of immunostained cells after siRNA transfection; type: cell-based, human
Protocol: The extent of GPC2 mRNA reduction (knockdown) and corresponding protein level expression changes were assessed in three neuroblastoma cell lines following siRNA knockdown of GPC2. The CHP212 neuroblastoma cell line (FIG. 5A and FIG. 5D), the SH-SY5Y neuroblastoma cell line (FIG. 5B and FIG. 5E) and the CHLA90 neuroblastoma cell line (FIG. 5C and FIG. 5F) were transfected with GPC2 siRNA sequences 5 and 7 from Table 7 and a scrambled control siRNA using the RNAiMAX Lipofectamine kit (Invitrogen, Carlsbad, Calif.) as previously described. Following a 24, 48, or 72 hour incubation period, cells were washed and total RNA was isolated for measuring GPC2 mRNA expression. For protein analysis, cells were fixed, immunostained using an antibody against GPC2 protein, protein expression was measured via flow cytometry. As shown, GPC2 mRNA knockdown was observed beginning at the 24 hr time point and lasted for at least 72 hours. GPC2 protein expression started to decrease at the 48 hr time point.

[3] = system: KELLY cells; experiment: Topotecan IC50 in siRNA-transfected cells, Cell Titer Glo 2.0 viability (Example 10); type: cell-based
Protocol: GPC2 mRNA expression was reduced and changes in cell viability were assessed in multiple neuroblastoma cell lines. Cells were transfected with either a control siRNA or with GPC2 siRNA sequences 5 or 7 from Table 7 using the RNAiMAX Lipofectamine kit (Invitrogen, Carlsbad, Calif.) as previously described in 96 wells for viability assays. Topotecan was added at increasing concentrations (0-5 uM) to transfected cells at 24 hours post transfection. Following a 72 hour incubation period, viability measurements were made using Cell Titer Glo 2.0.

[4] = system: COV362 cells; experiment: Cell viability after siRNA transfection, Cell Titer Glo 2.0 (Example 3); type: cell-based; conditions: COV362 (Ovarian Carcinoma); 96 hour incubation
Protocol: (§1) GPC2 mRNA knockdown and changes in cell viability were assessed in multiple cancer cell lines. Cells were transfected with either a scrambled control siRNA or with GPC2 siRNA sequence 3 or sequence 5 from Table 7 using the RNAiMAX Lipofectamine kit (Invitrogen, Carlsbad, Calif.) as previously described in Example 2, either in 96 well format (for viability assays) or 6 well format (for knockdown assessment). Following a 96 hour incubation period, cells were washed and the viability measurement was assessed using Cell Titer Glo 2.0. Total RNA was isolated from the 6 well plate samples to determine knockdown efficiency.

[5] = system: GIST-T1 cells; experiment: as above; type: cell-based
Protocol: as §1

[6] = system: SKNAS cells; experiment: as above; type: cell-based
Protocol: as §1

[7] = system: TC32 cells; experiment: as above; type: cell-based
Protocol: as §1

[8] = system: RH41 cells; experiment: as above; type: cell-based
Protocol: as §1

[9] = system: SNU16 cells; experiment: as above; type: cell-based
Protocol: as §1

[10] = system: TOV112D cells; experiment: as above; type: cell-based
Protocol: as §1

[11] = system: RH30 cells; experiment: as above; type: cell-based
Protocol: as §1

[12] = system: CHP212 cells; experiment: as above; type: cell-based
Protocol: as §1

[13] = system: MCF7 cells; experiment: as above; type: cell-based
Protocol: as §1

[14] = system: IMR32 cells; experiment: as above; type: cell-based
Protocol: as §1

[15] = system: TC71 cells; experiment: as above; type: cell-based
Protocol: as §1

[16] = system: CHLA-136 cells; experiment: Cyclophosphamide IC50 in siRNA-transfected cells, Cell Titer Glo 2.0 viability (Example 7); type: cell-based
Protocol: (§2) GPC2 mRNA expression was reduced with the indicated siRNAs and changes in cell viability were assessed in multiple neuroblastoma cell lines. Cells were transfected with either a control siRNA or with GPC2 siRNA sequences 3, 5 or 7 from Table 7 using the RNAiMAX Lipofectamine kit (Invitrogen, Carlsbad, Calif.) as previously described in 96 wells for viability assays. Cyclophosphamide was added at increasing concentrations (0-20 uM) to transfected cells at 24 hr post transfection. Following a 72 hour incubation period, viability measurements were made using Cell Titer Glo 2.0.

[17] = system: CHLA-172 cells; experiment: as above; type: cell-based
Protocol: as §2

[18] = system: SKNAS cells; experiment: as above; type: cell-based
Protocol: as §2

[19] = system: KELLY cells; experiment: as above; type: cell-based
Protocol: as §2

[20] = system: CHLA-136 cells; experiment: Etoposide IC50 in siRNA-transfected cells, Cell Titer Glo 2.0 viability (Example 9); type: cell-based
Protocol: (§3) GPC2 mRNA expression was reduced and changes in cell viability were assessed in multiple neuroblastoma cell lines. Cells were transfected with either a control siRNA or with GPC2 siRNA sequences 3, 5 or 7 from Table 7 using the RNAiMAX Lipofectamine kit (Invitrogen, Carlsbad, Calif.) as previously described in 96 wells for viability assays. Etoposide was added at increasing concentrations (0-15 uM) to transfected cells at 24 hours post transfection. Following a 72 hour incubation period, viability measurement were made using Cell Titer Glo 2.0.

[21] = system: CHLA-172 cells; experiment: as above; type: cell-based
Protocol: as §3

[22] = system: SKNAS cells; experiment: as above; type: cell-based
Protocol: as §3

[23] = system: KELLY cells; experiment: as above; type: cell-based
Protocol: as §3

## GPC2 siRNA 7: siRNA duplex: sense CUCCUUUCUGGUUCACACA[dT][dT] (SEQ ID NO: 215), anti-sense UGUGUGAACCAGAAAGGAG[dT][dT] (SEQ ID NO: 216) (sense rCrUrCrCrUrUrUrCrUrGrGrUrUrCrArCrArCrAdTdT; antisense rUrGrUrGrUrGrArArCrCrArGrArArArGrGrArGdTdT; listed as Homo sapiens)
[1]
  Viability decrease among sequences 3, 5, 6-11: greater viability decrease
[2]; CHLA90 cells, at 72 hours (FIG. 5F)
  GPC2 protein expression (Mean Fluorescence (FL1) Intensity): Reduced GPC2 protein expression
[2]; CHP212, SH-SY5Y and CHLA90 neuroblastoma cell lines
  Time point at which GPC2 protein expression started to decrease: 48 h
[2]; CHP212 cells, at 48 and 72 hours (FIG. 5D)
  GPC2 protein expression (Mean Fluorescence (FL1) Intensity): Reduced GPC2 protein expression
[2]; SH-SY5Y cells, at 48 and 72 hours (FIG. 5E)
  GPC2 protein expression (Mean Fluorescence (FL1) Intensity): Reduced GPC2 protein expression
[3]; KELLY
  Data Summary: effect of knockdown on sensitivity to topotecan: not increase sensitivity to topotecan
[3]; KELLY cells transfected with the labelled siRNA, topotecan added 24 hours post transfection, 72 hour incubation
  IC50: 20 nM

## GPC2 siRNA 3: siRNA duplex: sense CCUGCUUGGACCUCGAUAA[dT][dT] (SEQ ID NO: 207), anti-sense UUAUCGAGGUCCAAGCAGG[dT][dT] (SEQ ID NO: 208) (sense CCUGCUUGGACCUCGAUAANN; antisense UUAUCGAGGUCCAAGCAGGNN; 3' dTdT overhangs, chemistry not fully specified; listed as Homo sapiens)
[4]
  % Viability: 102.76%
[5]
  % Viability: 70.87%
[6]
  % Viability: 84.58%
[7]
  % Viability: 78.24%
[8]
  % Viability: 131.49%
[9]
  % Viability: 92.74%
[10]
  % Viability: 152.77%
[11]
  % Viability: 79.02%
[12]
  % Viability: 70.18%
[13]
  % Viability: 79.67%
[14]
  % Viability: 89.05%
[15]
  % Viability: 102.39%
[16]; CHLA-136
  Data Summary: effect of knockdown on sensitivity to cyclophosphamide: not increase sensitivity
[16]; CHLA-136 cells transfected with the labelled siRNA, cyclophosphamide added 24 hr post transfection, 72 hour incubation
  IC50: 11000 nM
[17]; CHLA-172
  Data Summary: effect of knockdown on sensitivity to cyclophosphamide: increases sensitivity to
[17]; CHLA-172 cells transfected with the labelled siRNA, cyclophosphamide added 24 hr post transfection, 72 hour incubation
  IC50: 10000 nM
[18]; SKNAS
  Data Summary: effect of knockdown on sensitivity to cyclophosphamide: increases sensitivity to
[18]; SKNAS cells transfected with the labelled siRNA, cyclophosphamide added 24 hr post transfection, 72 hour incubation
  IC50: 1370 nM
[19]; KELLY
  Data Summary: effect of knockdown on sensitivity to cyclophosphamide: increases sensitivity to
[19]; KELLY cells transfected with the labelled siRNA, cyclophosphamide added 24 hr post transfection, 72 hour incubation
  IC50: 8000 nM
[20]; CHLA-136
  Data Summary: effect of knockdown on sensitivity to etoposide: increases sensitivity to etoposide
[20]; CHLA-136 cells transfected with the labelled siRNA, etoposide added 24 hours post transfection, 72 hour incubation
  IC50: 170 nM
[21]; CHLA-172
  Data Summary: effect of knockdown on sensitivity to etoposide: increases sensitivity to etoposide
[21]; CHLA-172 cells transfected with the labelled siRNA, etoposide added 24 hours post transfection, 72 hour incubation
  IC50: 2000 nM
[22]; SKNAS
  Data Summary: effect of knockdown on sensitivity to etoposide: increases sensitivity to etoposide
[22]; SKNAS cells transfected with the labelled siRNA, etoposide added 24 hours post transfection, 72 hour incubation
  IC50: 40 nM
[23]; KELLY
  Data Summary: effect of knockdown on sensitivity to etoposide: increases sensitivity to etoposide
[23]; KELLY cells transfected with the labelled siRNA, etoposide added 24 hours post transfection, 72 hour incubation
  IC50: 70 nM
